9 compounds from patent US9034862B2, “Compositions and methods for the treatment of cancer” (priority 2011, dated 2015) can be followed below.

The subject of series [1] is human lung carcinoma A549. Description: MTT assay, A549. It is filed as cell-based.
Method: (§6) Solutions of the platinum compounds were freshly prepared in sterile PBS before use and their concentrations quantitated by atomic absorption spectroscopy. Cells were seeded on a 96-well plate (1200 cells per well for cancer cells and 1800 cells per well for the normal lung fibroblasts) in 100 μL RPMI or DMEM media, and incubated for 24 h. […] The cells were then treated with 20 μL of 3-(4,5-dimethylthiazol-2-yl)-2,5-diphenyltetrazolium bromide (MTT) (5 mg/mL in PBS) and incubated for 4 h. The medium was removed, 100 μL of DMSO was added to the cells, and the absorbance of the purple formazan was recorded at 560 nm using a BioTek Synergy HT multi-detection microplate plate reader. Each condition was performed in triplicate and three independent experiments were carried out for each cell line.
(§7) Human prostate carcinoma (PC3) and human cervix carcinoma (HeLa) cells were obtained from the ATCC. The human lung carcinoma cell line A549 was kindly provided by David E. Root (Whitehead Institute for Biomedical Research). Cells were incubated at 37° C. in 5% CO2 and grown in RPMI (PC3) or DMEM (A549 and HeLa) medium supplemented with 10% fetal bovine serum and 1% penicillin/streptomycin. Cells were passaged every 3 to 4 days and restarted from the frozen stock upon reaching passage number 20.
(§8) Solutions of the platinum agents were freshly prepared in sterile PBS before use and the platinum content was quantitated by AAS. Cells were seeded on 96 well plates (1200 cells per well) in 100 μL RPMI or DMEM media\ and incubated for 24 hours. […] The cells were then treated with 20 μL of 3-(4,5-dimethylthiazol-2-yl)-2,5-diphenyltetrazolium bromide (MTT) (5 mg/mL in PBS) and incubated for 4 h. The medium was removed, 100 μL of DMSO were added to the cells, and the absorbance of the purple formazan was recorded at 570 nm using a BioTek Synergy HT multi-detection microplate plate reader. For each cell line, three independent experiments were carried out in triplicate.
The subject of series [2] is Human colon carcinoma HT29. Nature of the series: MTT assay, HT29. It is filed as cell-based. The method, then: (§1) Human colon carcinoma HT29, human breast carcinoma MCF7, human bone sarcoma U2OS, human prostate carcinoma PC3, and human cervix carcinoma HeLa cells were obtained from the ATCC. A2780/CP70 cisplatin-resistant human ovarian cancer cells were kindly provided by Dr. Stephen B. Howell (Moores UCSD Cancer Center) and the human lung carcinoma cell lines A549 and normal lung fibroblast MRC5 by David E. Root (Whitehead Institute for Biomedical Research). Cells were incubated at 37° C. in 5% CO2 and grown in RPMI (HT29, A2780/CP70, and PC3) or DMEM (A549, MRC5, HeLa, MCF7, and U2OS) medium supplemented with 10% fetal bovine serum and 1% penicillin/streptomycin. Cells were passed every 3 to 4 days and restarted from a frozen stock upon reaching pass number 20.
(§2) Solutions of the platinum compounds were freshly prepared in sterile PBS before use and their concentrations quantitated by atomic absorption spectroscopy. […] The cells were then treated with 20 μL of 3-(4,5-dimethylthiazol-2-yl)-2,5-diphenyltetrazolium bromide (MTT) (5 mg/mL in PBS) and incubated for 4 h. The medium was removed, 100 μL of DMSO was added to the cells, and the absorbance of the purple formazan was recorded at 560 nm using a BioTek Synergy HT multi-detection microplate plate reader. Each condition was performed in triplicate and three independent experiments were carried out for each cell line.

Series [3] concerns normal lung fibroblast MRC5. Description: MTT assay, MRC5. The series is classed as cell-based, human. Here is the method:
as §1, §2

Series [4] relates to human cervix carcinoma HeLa cells. Nature of the series: MTT assay, HeLa. It is filed as cell-based. As to conditions: 72-h incubation.
Method: as §6, §7, §8
Another series has as its system human bone sarcoma U2OS. Description: MTT assay, U2OS. The series is classed as cell-based. Conditions: 72-h incubation. Here is the method: as §1, §2
Series [5] concerns human breast carcinoma MCF7. Nature of the series: MTT assay, MCF7. It is filed as cell-based. Conditions: Table 3, MCF7 Breast, 72-h incubation. Here is the method: as §1, §2
A further series has as its system NTera2. Description: MTT assay, NTera2. It is filed as cell-based, human. Conditions: Table 3, NTera2 Testis, 72-h incubation.
In series [6] the test system is human prostate carcinoma PC3. Description: MTT assay, PC3. The series is classed as cell-based. Conditions: Table 3, PC3 Prostate, 72-h incubation.
Method: as §6, §7, §8
A further series relates to calf thymus DNA. Description: Ethidium bromide DNA-binding competition, Scatchard analysis. Set-up: key: competitive (type A); non-competitive (type D); both (type B); No inhibition of ethidium binding is labeled as type C.
The test system of another series is pGLuc plasmid. Description: Platination of pGLuc plasmid. It is filed as biochemical.
For series [7], the system named is GLuc expression in A549 cells. Description: Transcription assay, globally platinated pGLuc, A549. It is filed as cell-based, human. As to conditions: for transcription level (normalized against unplatinated plasmid): Pt/DNA ratio of […] for phenanthriplatin. Here is the method:
(§3) Transfection of transcription probes into A549 and HT29 cells with the pGLuc plasmid was carried out using liposomal transfecting agents. Determination of expression levels was tested by Luciferase assays monitored by a luminometer (J. Am. Chem. Soc. 2010, 132, 7429-7435). A549 cells were plated in 96-well plates at 2,000 cells/well and HT29 cells were plated in 96-well plates at 6,000 cells/well. After 48 h incubation (at ˜30% confluence), cells were transfected with 50 ng of platinated plasmids in 25 μL Opti-MEM and 0.125 μL Lipofectamine 2000, and subsequently 50 μL of antibiotics-free DMEM supplemented with 10% FBS. After 2 h, the cells were washed with medium and 100 μL of fresh medium was added. The experiment was carried out in quadruplicate.
(§4) GLuc activity was monitored using a luminescence plate reader (Synergy 2, BioTek, Winooski, Vt., USA). A 10 μL volume of medium at different time points (12, 24, 36, 48, 60 h) was transferred into opaque white 96-well plates, and 25 μL of GLuc assay solution (10 μM colelenterazine (NanoLight Technologies, Pinetop, Ariz., USA) in 2.5 mM acidified methanol (100 mM HCl), buffer (10 mM Tris-HCl pH 7.8, 1 mM EDTA, 0.6 M NaCl)) was added by the automatic injector of the instrument.
(§5) In another embodiment, A549 or HT29 cells were transfected using the platinated transcription probes, and transcription levels were investigated by determining GLuc expression as measured by […] following addition of coelenterazine as a substrate for the exported enzyme. The emission intensities were normalized against unplatinated plasmids as a control. Transcription profiles were obtained by plotting normalized levels of GLuc expression against platination levels (Pt/plasmid ratio) at five different time points. […] An increase in D0 value at different time points represents restoration of transcription.

Series [8] deals with GLuc expression in HT29 cells. Description: Transcription assay, globally platinated pGLuc, HT29. It is filed as cell-based, human. As to conditions: for transcription level (normalized against unplatinated plasmid): Pt/DNA ratio of […] for phenanthriplatin. Here is the method: as §3, §4, §5
For series [9] the following is noted: D2O at 37° C.
Method: (§9) The 1-D ^1H NMR kinetic studies were performed in duplicate as a standard time-arrayed experiment using a variable delayed list. Incremented 1-D spectra were processed in exactly the same way and signals of aromatic amine ligands from platinum compounds were integrated. The relative concentrations of the platinum compound at each time point were calculated from peak integrals. […] Reactions of platinum compounds with 5′-dGMP were performed in NMR tubes containing 2 mM of the platinum compounds and 32 mM (16 equiv) of 5′-dGMP in 10 mM PBS buffer, D2O, pH*7.4 at 37° C.
In another series the test system is 5′-dGMP. As to conditions: 16 equiv 5′-dGMP, 37° C., PBS pH 7.4.
The conditions of series [10]: equimolar N-AcMet, 37° C.
Method: NMR spectra were collected on a Varian 500 spectrometer equipped with a triple-resonance broadband inverse probe and a variable temperature unit. The 1-D ^1H NMR kinetic studies were performed in duplicate as a standard time-arrayed experiment using a variable delayed list. Incremented 1-D spectra were processed in exactly the same way and signals of aromatic amine ligands from platinum compounds were integrated. The relative concentrations of the platinum compound at each time point were calculated from peak integrals. […] Reactions of platinum compounds with N-AcMet were performed in NMR tubes containing 2 mM of the Pt complex and 2 mM (1 equiv) of N-AcMet in 10 mM PBS buffer, D2O, pH*7.4 at 37° C. […] Deuterated 3-(trimethylsilyl)propionic acid sodium salt (TMS-PFASS) was used as an internal standard. The pH* values are the measured pH values without correction for the effect of deuterium on the electrode.
[11] abbreviates: Table 3, A549 Lung, 72-h incubation.
Setting [12] is: Table 4, A549 human lung carcinoma, 72 h incubation.
[13] abbreviates: Table 3, HT29 Colorectal, 72-h incubation.

Method for 5′-dGMP: as §9
Method for NTera2: as §6
From the text for calf thymus DNA: Using this approach, it is possible to determine whether the inhibition of ethidium binding is competitive (type A), non-competitive (type D), or both (type B). No inhibition of ethidium binding is labeled as type C.
Method for pGLuc plasmid: The resulting mixtures were dialyzed (molecular weight cut-off 3.5 kDa) against ddH2O overnight at 4° C. with five changes of ddH2O. The rb values (bound Pt/nucleotide) were determined by UV/Vis and atomic absorption spectroscopy.
In one embodiment, the ratio of bound platinum per plasmid was determined by measuring the Pt concentration by atomic absorption spectroscopy and the DNA concentration by UV/Vis spectroscopy.

With `Cc1cccnc1N.N.N.O=[N+]([O-])[O-].[Cl][Pt+]` [cis-[Pt(NH3)2 (2-amino-3-methylpyridine)-Cl]NO3], the concentration for half-maximal inhibition (IC50) amounted to 47.1 ± 1.4 µM in series [1] (Table 5, A549, 72-h incubation); 72.9 ± 4.6 µM in [2] (Table 5, HT29, 72-h incubation); 51.7 ± 7.7 µM in series [3] (Table 5, MRC5, 72-h incubation).

Regarding `N.N.O=[N+]([O-])[O-].[Cl][Pt+].c1ccc2nc3ccccc3cc2c1` [cis-[Pt(NH3)2(acridine)Cl]NO3], the 50% inhibitory concentration (IC50) came out at 3.74 ± 0.01 µM in series [1] (Table 5, A549, 72-h incubation); 2.69 ± 0.1 µM in [4] (Table 5, HeLa); 4.42 ± 0.31 µM in the series with human bone sarcoma U2OS (Table 5, U2OS); 13.5 ± 0.7 µM in [2] (Table 5, HT29, 72-h incubation); 9.17 ± 0.47 µM in series [3] (Table 5, MRC5, 72-h incubation).

Regarding `O=[N+]([O-])[O-].[NH3+][Pt-2]([NH3+])([Cl])[n+]1cccc2c3ccccc3ccc21` (stereo not drawn) [cis-[Pt(NH3)2(benzo[f]quinoline)Cl]NO3], the IC50 in series [1] (Table 5, A549, 72-h incubation) was found to be 0.83 ± 0.03 µM; in [4] (Table 5, HeLa) it was 0.64 ± 0.01 µM; in the series on human bone sarcoma U2OS (Table 5, U2OS) it was 0.88 ± 0.01 µM.

Take `N.N.O=[N+]([O-])[O-].[Cl][Pt+].c1ccc2cnccc2c1` [cis-[Pt(NH3)2(isoquinoline)Cl]NO3]: the IC50 in series [1] (Table 5, A549, 72-h incubation) was 11.5 ± 0.4 µM; in series [2] (Table 5, HT29, 72-h incubation), 45.6 ± 2.7 µM; in series [3] (Table 5, MRC5, 72-h incubation) it was 26.4 ± 1 µM.

Take `O=C1[O][Pt]2([NH][C@@H]3CCCC[C@H]3[NH]2)[O]C1=O` [oxaliplatin]: the IC50 in series [1] (setting [11]) stood at 6.79 ± 0.26 µM; in series [1] (setting [12]), 10.5 ± 0.18 µM; in series [4] (Table 3, HeLa Cervix) it was 11.8 ± 1.4 µM; in series [5], 17.9 ± 2.7 µM; with human bone sarcoma U2OS (Table 3, U2OS Bone) it was 8.67 ± 0.59 µM; in [2] (setting [13]), 1.81 ± 1.15 µM. For the same compound, the IC50 was determined as 1.12 ± 0.08 µM in the series with NTera2 and 13.2 ± 4 µM in [6].

Turning to `N.N.O=[N+]([O-])[O-].[Cl][Pt+].c1ccncc1` [pyriplatin, cis-[Pt(NH3)2(pyridine)Cl]NO3], the 50% inhibitory concentration (IC50) in [1] (setting [11]) was 52.1 ± 2.3 µM; in [1] (setting [12]) it was 52.1 ± 2.25 µM; in series [1] (Table 5, A549, 72-h incubation), 52.1 ± 2.3 µM; in [4] (Table 3, HeLa Cervix), 31.3 ± 2.8 µM; in series [4] (Table 5, HeLa), 31.3 ± 2.8 µM; in series [5] it was 109 ± 10 µM. In addition, the half-inhibitory concentration (IC50) in the series on human bone sarcoma U2OS (Table 3, U2OS Bone) is 78.9 ± 6.7 µM; with human bone sarcoma U2OS (Table 5, U2OS) it was 78.9 ± 6.7 µM; in series [2] (setting [13]) it was 144 ± 10 µM; in [2] (Table 5, HT29, 72-h incubation) it was 144 ± 10 µM; in the series on NTera2, 5.16 ± 0.96 µM; in series [6], 47.9 ± 9.2 µM. For the same compound, the IC50 is 92.1 ± 9.9 µM in series [3] (Table 4, MRC5 normal lung fibroblast, 72 h incubation) and 92.1 ± 9.9 µM in [3] (Table 5, MRC5, 72-h incubation). For the same compound, the “type of inhibition of ethidium binding (Scatchard)” value with calf thymus DNA (12-h incubation period) and in the series on calf thymus DNA (1 min incubation period) was “type C” each time. Also, the Pt per plasmid with pGLuc plasmid (rf 0.0016, 16 h at 37° C.) came to 13.33 Pt per plasmid; with pGLuc plasmid (rf 0.004, 16 h at 37° C.) it was 31.19 Pt per plasmid; in the series with pGLuc plasmid (rf 0.0076, 16 h at 37° C.), 57.96 Pt per plasmid; with pGLuc plasmid (rf 0.015, 16 h at 37° C.), 117.31 Pt per plasmid. Also, the “rb (bound Pt/nucleotide)” value in the series with pGLuc plasmid (rf 0.0016, 16 h at 37° C.) is 0.0017; with pGLuc plasmid (rf 0.004, 16 h at 37° C.), 0.0039; in the series on pGLuc plasmid (rf 0.0076, 16 h at 37° C.) it was 0.0073; with pGLuc plasmid (rf 0.015, 16 h at 37° C.), 0.0015. In addition, the “transcription level (normalized against unplatinated plasmid)” value came out at 55.2% in series [7] (A549, 12 h); 66.8% in series [7] (A549, 60 h); 55.3% in [8] (HT29, 12 h); 75.2% in [8] (HT29, 60 h). Further, the “D0 (Pt lesions per plasmid required to reduce transcription levels to 37% of control)” value was found to be 39.2 Pt/plasmid in series [7] (A549, 12 h after transfection); 58.5 Pt/plasmid in series [7] (A549, 24 h after transfection); 68.8 Pt/plasmid in series [7] (A549, 36 h after transfection); 85.2 Pt/plasmid in series [7] (A549, 48 h after transfection); 89.1 Pt/plasmid in series [7] (A549, 60 h after transfection); 35.6 Pt/plasmid in [8] (HT29, 12 h after transfection). Also, the “D0 (Pt lesions per plasmid required to reduce transcription levels to 37% of control)” value is 40.5 Pt/plasmid in series [8] (HT29, 24 h after transfection); 42.9 Pt/plasmid in series [8] (HT29, 36 h after transfection); 44.5 Pt/plasmid in series [8] (HT29, 48 h after transfection); 49.3 Pt/plasmid in series [8] (HT29, 60 h after transfection). The “equilibrium constant for aquation” value in series [9] is reported as “approximately 0.05”. Moreover, in series [9], the “time after which aquation reaction is complete (equilibrium with aqua analogue)” value was 1 h. Besides, the “pseudo-first order rate constant, reaction with 5′-dGMP” value in the series on 5′-dGMP came out at 0.29 h⁻¹. Besides, the “reaction with N-AcMet more rapid than that for phenanthriplatin” value in [10] is on record as above 10 fold. Further, the “second-order rate constant, reaction with N-AcMet” value in series [10] was determined as 0.56 mM⁻¹ h⁻¹.

Take “cis-[Pt(NH3)2 (1-methylimidazole)-Cl]NO3”: the 50% inhibitory concentration (IC50) in series [1] (Table 5, A549, 72-h incubation) is 62 ± 0.8 µM; in series [2] (Table 5, HT29, 72-h incubation), 53.4 ± 8.5 µM; in series [3] (Table 5, MRC5, 72-h incubation), 40.5 ± 1.1 µM.

For cis-[Pt(NH3)2 (2-methylpyridine)Cl]NO3, the IC50 in series [1] (Table 5, A549, 72-h incubation) was 50.6 ± 1.7 µM; in series [2] (Table 5, HT29, 72-h incubation), 63.8 ± 1.9 µM; in series [3] (Table 5, MRC5, 72-h incubation), 58.9 ± 4.2 µM.

Regarding cis-[Pt(NH3)2(quinoline)Cl]NO3, the IC50 in [1] (Table 5, A549, 72-h incubation) was 8.11 ± 0.68 µM; in series [4] (Table 5, HeLa), 12.2 ± 0.8 µM; in the series with human bone sarcoma U2OS (Table 5, U2OS), 23.5 ± 2.7 µM; in series [2] (Table 5, HT29, 72-h incubation), 38 ± 4.5 µM; in [3] (Table 5, MRC5, 72-h incubation), 23.5 ± 1.6 µM.
